From patent US8343912B2, “Antibiotic compositions for the treatment of gram negative infections” (priority 2008, dated 2013)
≈ marks a conversion by molar mass, not a printed value. Marks after values point to notes of the source that are not given here. Numbered stars: 1 amine (or outer) side, 2 acyl side, 3 side chain; on linkers, the order of the positions; unused ones are H or OH. Bridge positions count the residues as written; N and C are the ends. Square brackets hold non-standard residues; d marks the D form. Peptide text beside a SMILES is read from it. * marks the point of attachment. NH(3-Cl-phenyl) = Clc1cccc(N*)c1; NH(2-ClPh) = Clc1ccccc1N*; Dab = NCC[C@H](N)C(=O)O; CO = O=C([*:1])[*:2]

Assays:
[1] = Cell culture cytotoxicity assay (ATP bioluminescence, LLC-PK1); type: cell-based, rat; details: read-out: EC50, rat kidney proximal tubule cell culture cytotoxicity assay
Procedure: (§1) Day 1: 1×10^5 to 2×10^5 cellswere inoculated (Cell line: LLC-PK1) per flask, containing 4 mL/T25 flask of medium DMEM-F12 (50/50) media supplemented with 10% FBS (Fetal Bovine Serum). The cells were then incubated at 37° C., 5% CO2, 80% RH.
(§2) Day 4: The cell cultures were examined to determine 80% confluency. To trypsinize of the 80% confluent flasks, 4 mL of DMEM-F12-10% FBS media was prepared per flask. The media was aspirated from the flask and 5 mL of Versene was added to rinse the flask. The Versene was aspirated and 2 mL of triple Express solution (trypsin solution) was added. The cells were incubated for 5 min at room temperature and examined via microscopy for the rounding of the cells and their detachment. To speed up the reaction, the flask can be incubated at 37° C. for 3 minutes. 4 mL of media (DMEM-F12-10%FBS) was added to stop the reaction. Using a 5 mL pipette, the completed reaction was pipetted up and down to ensure that the cells were properly detached from the flask and from each others. The cell number was counted using a hemocytometer slide. 100 μL of cell suspension was transferred to a tube and 100 μL of Trypan Blue was added. Inoculum for 96 well is 10,000 cells per well. For one 96 well plate, 26.3 μL×110 well=2893 μL total. 2.9 mL of cell suspension was mixed with 8.1 mL of media DMEM-F12-10% FBS and 100 μL was distributed to each well using a multichannel pipetter. The plate was then Incubated for 24 h at 37° C.
(§3) Day 5: DMEM-F12 (no FBS) medium was dispensed into tubes with the test article to achieve final concentrations of […]. The 96 well plate was taken off the incubator and media was removed from each well using multichannel pipetter. 80 μL of serially diluted compounds of Formula (I) was added to each well. Every set of concentration was done in triplicate. Media and positive controls were added to each plate and the plates were incubated for 24 hours at 37° C.
(§4) Day 6: The plates were taken from the incubator, the media was removed from each well, and 100 μL of fresh media DMEM-F12 (this is equivalent to a rinse and the media can be replaced with PBS) was added. The media is then removed and 80 μL of cell lysis solution is added. After 5 minutes, 80 μL of sterile filtered high quality water was added to each well. Using a white or black 96 well reaction plate, 80 μL of 25× diluted ATP mix reagent (Sigma Bioluminescent Somatic Cell Assay Kit [cat #FL-ASC]) was added into one column. 80 μL of diluted ATP standards (dilutions used: 250, 500, 1000, 2000 and 4000) was added and the plate was read immediately in the topcount with a 2 second read time. In another white or black 96 well reaction plate, 80 μL of 25× diluted ATP mix reagent (plate A) was added and 80 μL of lysis-water solution was transferred to each column of plate A. The plate was then read immediately in the topcount with a 2 second read time. This process was repeated for next consecutive plate and the EC50 for certain compounds of Formula I were calculated and provided in Table 4.

[2] = tested on: P. aeruginosa; test: MIC, broth microdilution (Table 4); type: cell-based, Pseudomonas aeruginosa; details: for MIC P. aeruginosa: Table 4
Procedure: (§5) MIC testing was performed according to Clinical and Laboratory Standards Institute (CLSI) M7-A7 (2006) broth microdilution methods. Unless otherwise indicated, MIC values are provided in units of micrograms per milliliter.
(§6) One day prior to testing, individual colonies were isolated by streaking onto rich, non-selective Tryptic Soy agar with 5% lysed sheeps blood (TSAB) with incubation at 35-37° C. for 18-24 hours.
(§7) Cultures were prepared by touching 3-5 colonies into 3 mL of Cation adjusted Mueller Hinton Broth (caMHB) in a 14 mL tube (CaMHB was prepared and sterilized according to manufacturer's specifications). Cultures were grown at 37° C. 200 rpm for approximately four hours prior to density adjustment for addition to the MIC assay.
(§8) OD600 of growing cultures was measured and adjusted to approximately 10^5 colony forming units per mL (CFU/mL) in caMHB for MIC inoculation (approximately OD600 0.001).
(§9) Diluted cultures were used to inoculate 50 μL per well in broth microdilution assays (final volume 100 μl per well; compounds were prepared in two-fold dilutions).
(§10) Plates were incubated 16-20 hrs at 37° C., with shaking at 200 rpm.
(§11) OD600 was determined for all wells. Growth was defined as OD600>0.1. MICs were defined as the lowest concentration producing no visible turbidity (OD600<0.1).

[3] = tested on: Rat kidney proximal tubule cells; test: Cell culture cytotoxicity assay (ATP bioluminescence, LLC-PK1); type: cell-based; details: LLC-PK1, 24 hours, ATP readout
Procedure: as §1, §2, §3, §4

[4] = tested on: S. maltophilia; test: MIC90, broth microdilution, panel of Gram negative clinical isolates; type: cell-based, Stenotrophomonas maltophilia; details: 25 strains
Procedure: (§12) To evaluate the potency and spectrum of compounds of Formula (I), (i.e., Compounds designated 5 and 6), a study was conducted that put together a panel of 455 Gram negative strains, which included multi-drug resistant clinical isolates selected from various surveillance programs. Table 3A lists the strains that were included in the study and the activity of Compound 5, Compound 6, and colistin (polymyxin E, abbreviated PME). Strains with acquired resistance to colistin and/or carbapenems and/or broad spectrum cephalosporins were pre-selected and included in all organism groups evaluated.
as §5, §6, §7, §8, §9, §10, §11

[5] = tested on: Acinetobacter spp; test: as above; type: cell-based; details: 81 strains
Procedure: as §12, §5, §6, §7, §8, §9, §10, §11

[6] = tested on: Enterobacter; test: as above; type: cell-based; details: 20 strains; some strains multi-drug resistant
Procedure: as §12, §5, §6, §7, §8, §9, §10, §11

[7] = tested on: Citrobacter spp.; test: as above; type: cell-based; details: 20 strains; some strains multi-drug resistant
Procedure: as §12, §5, §6, §7, §8, §9, §10, §11

[8] = tested on: P. aeruginosa; test: as above; type: cell-based, Pseudomonas aeruginosa; details: for MIC90 P. aeruginosa: 100 strains
Procedure: as §12, §5, §6, §7, §8, §9, §10, §11

[9] = tested on: K. pneumonia; test: as above; type: cell-based, Klebsiella pneumoniae; details: 81 strains; some strains multi-drug resistant
Procedure: as §12, §5, §6, §7, §8, §9, §10, §11

[10] = tested on: E. coli; test: as above; type: cell-based, Escherichia coli; details: 80 strains; some strains multi-drug resistant
Procedure: as §12, §5, §6, §7, §8, §9, §10, §11

[11] = tested on: P. aeruginosa #44; test: MIC, broth microdilution; type: cell-based, Pseudomonas aeruginosa; details: Table 5; range of repeated tests
Procedure: as §5, §6, §7, §8, §9, §10, §11
(§13) P. aeruginosa #44 or K. pneumoniae #21 were grown in cation adjusted Mueller Hinton Broth (caMHB) (catalog #B12322; Fisher Scientific, Pittsburgh, Pa.) at 37° C. MIC testing was performed according to Clinical and Laboratory Standards Institute [CLSI, formerly National Committee for Clinical Laboratory Standards (NCCLS), Wayne, Pa.] guidelines for broth microdilution.
(§14) MIC testing was performed according to CLSI (formerly NCCLS) guidelines for broth microdilution.

[12] = tested on: Acinetobacter baumannii 1570; test: MIC, broth microdilution; type: cell-based; details: Table 8; range of repeated tests
Procedure: as §5, §6, §7, §8, §9, §10, §11
as §13, with “A. baumannii #1570” for “P. aeruginosa #44 or K. pneumoniae #21”
as §14

[13] = tested on: patients; details: human, in vivo; cited from earlier work

## CC(C)C[C@@H]1NC(=O)[C@@H](Cc2ccccc2)NC(=O)[C@H](CCN)NC(=O)[C@@H](NC(=O)[C@H](CCN)NC(=O)[C@@H](NC(=O)[C@H](CCN)NC(=O)Nc2cccc(Cl)c2)[C@@H](C)O)CCNC(=O)[C@H]([C@@H](C)O)NC(=O)[C@H](CCN)NC(=O)[C@H](CCN)NC1=O [Compound 4] ({NH(3-Cl-phenyl)-CO}-[Dab]T[Dab][Dab][Dab][dF]L[Dab][Dab]T; lactam 4-C)
[1]
  EC50: 691 µg/mL (≈ 568 µM)
[2]
  activity against bacteria compared with polymyxin B: as active or more active
  MIC P. aeruginosa: 2 micrograms/ml

## CC[C@H](C)[C@@H]1NC(=O)[C@@H](Cc2ccccc2)NC(=O)[C@H](CCN)NC(=O)[C@@H](NC(=O)[C@H](CCN)NC(=O)[C@@H](NC(=O)[C@H](CCN)NC(=O)Nc2ccccc2Cl)[C@@H](C)O)CCNC(=O)[C@H]([C@@H](C)O)NC(=O)[C@H](CCN)NC(=O)[C@H](CCN)NC1=O [Compound 6] ({NH(2-ClPh)-CO}-[Dab]T[Dab][Dab][Dab][dF]I[Dab][Dab]T; lactam 4-C)
[3]
  EC50 Rat kidney proximal tubule cells: >1000 micrograms/ml
[1]
  EC50: > 1000 µg/mL
[4]
  MIC90 S. maltophilia: 16 micrograms/mL
[5]
  MIC90 Acinetobacter spp: 2 micrograms/mL
[6]
  MIC90 Enterobacter: >16 micrograms/mL
[7]
  MIC90 Citrobacter spp.: 1 micrograms/mL
[8]
  MIC90 P. aeruginosa: 8 micrograms/mL
[8]; relative to colistin / Compound 5
  decrease in activity against colistin susceptible P. aeruginosa: approximately 4 fold
[9]
  MIC90 K. pneumonia: 4 micrograms/mL
[2]
  activity against bacteria compared with polymyxin B: as active or more active
  MIC P. aeruginosa: 1 micrograms/ml
[10]
  MIC90 E. coli: 4 micrograms/mL

## colistin [reference compound]
[4]
  MIC90 S. maltophilia: 16 micrograms/mL
[11]
  MIC against P. aeruginosa #44: 2-4 micrograms/ml
[5]
  MIC90 Acinetobacter spp: 4 micrograms/mL
[6]
  MIC90 Enterobacter: >64* micrograms/mL
[7]
  MIC90 Citrobacter spp.: 0.5* micrograms/mL
[8]
  MIC90 P. aeruginosa: 2 micrograms/mL
[12]
  MIC against A. baumannii #1570: 2 micrograms/ml
[13]
  overall incidence of neurotoxicity or neuropathy: 7.3%
[9]
  MIC90 K. pneumonia: 4* micrograms/mL
[10]
  MIC90 E. coli: 2* micrograms/mL
